From US11492325B2, “Compounds as inhibitors of sodium channels” (Human BioMolecular Research Institute, priority 2016, dated 2022)
“And” between values parts separate entries of the source, which are not always exact repeats. Identical values can stand only once. Like-named read-outs stand apart in the source and are kept apart here. Values belong to the compound of their own block, whether it stands above or below them.

Tests used:
[1] = Metabolism in human hepatic S9; conditions: for Human S-9, nmol metab./incub.: 0.4 mg protein/incubation, 30 mins, 37° C.
Protocol: (§1) A typical incubation contained rat, mouse, dog or human liver microsomes (0.4-0.5 mg of protein), 100 mM potassium phosphate buffer (pH7.4), 50 μM test compound, an NADPH-generating system consisting of 0.5 mM NADP^+, 0.5 mM glucose-6-phosphate, 1 IU/mL glucose-6-phosphate dehydrogenase, 1 mg/mL diethylenetriaminepentaaceticacid (DETAPAC), and 3 mM MgCl2 in a final incubation volume of 0.25 mL. […] After centrifugation at 3000 rpm for 5 min, the organic fraction was collected, the solvent was removed with a stream of argon and the residue was reconstituted in 125 μL of MeOH and 125 μL H2O, mixed thoroughly, centrifuged at 13,000 rpm for 5 min and analyzed by high performance liquid chromatography. Samples were run on a Hitachi D-7000 HPLC system using a L-7100 analytical pump, L-7400 UV-Visible variable wavelength detector, and L-7600 automatic sample injector. […] Disappearance of the analyte was monitored over time. A plot of the area under the curve for the normalized analyte versus time afforded the half-life values and kapp.
(§2) Microsomes contain CYPs and FMO metabolic enzymes. S9 contains soluble enzymes (i.e., aldehyde oxidase, MAO, etc.).

[2] = Metabolism in mouse hepatic S9; conditions: 0.4 mg protein/incubation; 30 mins, 37° C.
Protocol: as §1, §2

CYP3A4 = CYP3A4 (Homo sapiens, UniProt P08684); experiment: Metabolism with highly purified CYP3A4 (HPLC); conditions: 3 pmol enzyme/incubation; 30 mins, 37° C.
Human FMO1 = biological target: T1, Human FMO1 (Homo sapiens, UniProt Q01740); experiment: Metabolism with human FMO1 (nmol metabolism/incubation); conditions: 15 μg enzyme/incubation; 30 mins, 37° C.
T1 sequence (Q01740 1-532): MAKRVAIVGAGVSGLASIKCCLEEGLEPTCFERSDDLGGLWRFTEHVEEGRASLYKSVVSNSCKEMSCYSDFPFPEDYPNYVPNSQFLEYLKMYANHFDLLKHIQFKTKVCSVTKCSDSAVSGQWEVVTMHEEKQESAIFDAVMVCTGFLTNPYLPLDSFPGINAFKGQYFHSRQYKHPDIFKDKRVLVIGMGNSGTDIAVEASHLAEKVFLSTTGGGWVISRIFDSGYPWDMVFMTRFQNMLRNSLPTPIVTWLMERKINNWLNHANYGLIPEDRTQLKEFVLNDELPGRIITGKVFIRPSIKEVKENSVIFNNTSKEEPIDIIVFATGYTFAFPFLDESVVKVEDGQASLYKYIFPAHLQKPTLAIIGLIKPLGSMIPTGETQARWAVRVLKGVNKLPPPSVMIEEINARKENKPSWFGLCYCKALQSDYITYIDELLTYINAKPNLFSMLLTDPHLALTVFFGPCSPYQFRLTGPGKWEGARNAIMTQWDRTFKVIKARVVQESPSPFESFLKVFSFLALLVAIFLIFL

[3] = biological target: Nav1.5 sodium channel transfected into HEK293 cells (Homo sapiens, UniProt Q14524); experiment: Patch clamp electrophysiology, peak (INaP) and late (INaL) sodium current in transfected cells
Summary of the method: (§3)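 Conventional whole-cell patch clamp was performed on HEK293 cells transfected with Nav1.5 and plated on 0.1% gelatin-coated dishes. Values were reported as IC50 ± STD.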

[4] = biological target: Nav1.5 sodium channel, peak current (INaP) (Homo sapiens, UniProt Q14524, form not given); experiment: as above
Summary of the method: as §3

[5] = biological target: Na+ channel currents in LQT3 patient-derived cardiomyocytes (Homo sapiens, UniProt Q14524); experiment: Whole cell patch clamp of Na+ currents (INaP, INaL) in hIPSC LQT3 patient-derived cardiomyocytes; assay type: cell-based; conditions: for IC50: whole-cell voltage clamp, steps -80 mV to +40 mV, table title says transfected CHO cells
Protocol: Patch clamp recordings from hIPSC LQT3 patient-derived cardiomyocytes for Na+ channel currents were recorded in response to computed voltage waveforms that simulated adult ventricular action potentials.
The basis for LQT3 is a mutation in SCN5a that encodes the voltage-gated Na channel responsible for cardiac action potential. The Na current (INa) has peak and late components: the peak component initiates the action potential but as voltage rises, the channel normally inactivates. […] The LQT3 mutation impairs inactivation. The late component is then enlarged, resulting in action potential prolongation. […] Whole cell patch clamp electrophysiology experiments in LQTS3 cardiomyocytes helped determine the functional activity of drug candidates for inhibition of the late sodium current in the cells. Thus, we tested compounds for Peak (INaP) and Late (INaL) components. They were recorded in a “whole-cell” voltage-clamp mode configuration in response to voltage stimulation steps from −80 mV to +40 mV and their IC50 values determined (Table 1).

[6] = Metabolic stability in human liver microsomes; assay type: in vitro ADME
Protocol: as §1

[7] = Chemical stability in PBS buffer at pH 7.4 or 3.0, 37° C.; assay type: physicochemical; conditions: pH 7.4, 100 μM in PBS, 1% Ethanol, read-out: Half-Life @ pH 7.4 and 37° C.
Protocol: A typical incubation contained 100 μM of the test compound prepared in PBS buffer (pH 7.4 or 3.0, 50 mM) with 1% Ethanol. The test compounds were incubated at 37° C. An aliquot from incubations was taken at various times and injected onto an RP-HPLC system as described above. Disappearance of the analyte was monitored over time.

Male BALBc mice = conditions: for tolerability: 30-100 mg/kg, 24 hr
Excerpt: Male BALBc mice (20-22 g) were used throughout these studies. The animals were maintained in a temperature-controlled room with 12-hr periods of light and darkness and had continuous access to water and animal food. […] Groups contained 2-4 animals.

CYP2D6 = CYP2D6 (Homo sapiens, UniProt P10635); experiment: Metabolism with highly purified CYP2D6 (HPLC); conditions: 50 min incubation
Protocol: as §1
Accordingly, we examined the metabolism of leads with highly purified CYPs with an HPLC method (Example 8).

[8] = Solubility (water; 10:30:60% DMSO:PEG400:water vehicle); assay type: physicochemical
[9] = tested on: normal human induced pluripotent stem cell (hiPSC) cardiomyocyte; conditions: for WT-Fold Prolongation: APD
[10] = tested on: cardiomyocytes derived from hiPSCs from a LQTS3 patient
[11] = tested on: cardiomyocytes derived from hiPSCs from a LQTS3 patient; experiment: cells; conditions: Homo sapiens, Cardiomyocyte
[12] = biological target: T2, hERG potassium channel (IKr) (Homo sapiens, UniProt Q12809); experiment: Automated patch clamp, hERG (IKr) expressed in CHO cells; conditions: for IC50: hERG (IKr) IC50, CHO cells
[13] = biological target: T2, hERG potassium channel (IKr)
[14] = 'No AP' wraps to 'No AP shortening'
[15] = ratio peak/late IC50, Example 2

CYP2D6, sequence (P10635 whole entry): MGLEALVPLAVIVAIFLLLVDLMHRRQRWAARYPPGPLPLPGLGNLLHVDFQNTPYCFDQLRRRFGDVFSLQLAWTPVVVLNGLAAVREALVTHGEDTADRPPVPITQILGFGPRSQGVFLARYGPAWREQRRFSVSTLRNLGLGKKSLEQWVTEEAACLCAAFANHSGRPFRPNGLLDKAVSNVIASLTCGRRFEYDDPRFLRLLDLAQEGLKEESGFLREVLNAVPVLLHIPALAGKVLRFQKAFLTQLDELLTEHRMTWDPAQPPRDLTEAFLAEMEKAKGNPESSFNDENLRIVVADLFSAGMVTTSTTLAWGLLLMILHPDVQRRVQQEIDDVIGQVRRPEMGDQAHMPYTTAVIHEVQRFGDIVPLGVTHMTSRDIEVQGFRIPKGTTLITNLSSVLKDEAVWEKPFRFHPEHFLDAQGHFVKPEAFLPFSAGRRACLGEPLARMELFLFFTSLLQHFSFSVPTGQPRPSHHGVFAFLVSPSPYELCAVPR
T2 sequence (Q12809 whole entry): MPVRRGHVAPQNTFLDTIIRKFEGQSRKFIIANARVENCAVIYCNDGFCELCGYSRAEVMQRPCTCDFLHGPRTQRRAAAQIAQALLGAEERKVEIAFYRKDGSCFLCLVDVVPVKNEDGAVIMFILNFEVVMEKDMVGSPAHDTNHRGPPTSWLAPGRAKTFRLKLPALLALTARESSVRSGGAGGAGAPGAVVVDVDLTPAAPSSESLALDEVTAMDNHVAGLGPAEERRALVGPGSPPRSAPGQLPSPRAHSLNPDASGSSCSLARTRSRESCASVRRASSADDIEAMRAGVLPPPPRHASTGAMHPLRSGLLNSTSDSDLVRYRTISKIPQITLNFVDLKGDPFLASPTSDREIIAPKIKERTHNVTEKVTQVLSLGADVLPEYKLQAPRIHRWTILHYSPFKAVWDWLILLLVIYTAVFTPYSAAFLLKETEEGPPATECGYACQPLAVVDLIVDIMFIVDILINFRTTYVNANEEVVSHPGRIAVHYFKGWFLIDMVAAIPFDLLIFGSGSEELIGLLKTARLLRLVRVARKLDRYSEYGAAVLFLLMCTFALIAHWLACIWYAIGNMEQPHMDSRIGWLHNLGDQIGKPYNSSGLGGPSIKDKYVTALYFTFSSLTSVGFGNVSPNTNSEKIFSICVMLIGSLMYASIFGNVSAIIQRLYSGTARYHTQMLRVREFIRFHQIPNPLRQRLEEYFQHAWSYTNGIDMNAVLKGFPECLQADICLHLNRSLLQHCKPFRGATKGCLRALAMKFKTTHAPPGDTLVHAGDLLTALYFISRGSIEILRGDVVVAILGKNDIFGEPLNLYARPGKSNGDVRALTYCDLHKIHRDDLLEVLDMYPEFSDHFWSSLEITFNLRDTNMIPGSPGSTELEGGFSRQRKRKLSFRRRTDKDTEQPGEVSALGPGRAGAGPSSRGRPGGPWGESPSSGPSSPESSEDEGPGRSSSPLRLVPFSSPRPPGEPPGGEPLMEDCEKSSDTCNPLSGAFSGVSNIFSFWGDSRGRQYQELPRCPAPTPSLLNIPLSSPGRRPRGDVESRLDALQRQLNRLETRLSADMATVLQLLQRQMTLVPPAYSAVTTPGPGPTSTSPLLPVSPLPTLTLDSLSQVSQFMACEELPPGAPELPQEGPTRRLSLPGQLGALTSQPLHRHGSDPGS
CYP3A4, sequence (P08684 whole entry): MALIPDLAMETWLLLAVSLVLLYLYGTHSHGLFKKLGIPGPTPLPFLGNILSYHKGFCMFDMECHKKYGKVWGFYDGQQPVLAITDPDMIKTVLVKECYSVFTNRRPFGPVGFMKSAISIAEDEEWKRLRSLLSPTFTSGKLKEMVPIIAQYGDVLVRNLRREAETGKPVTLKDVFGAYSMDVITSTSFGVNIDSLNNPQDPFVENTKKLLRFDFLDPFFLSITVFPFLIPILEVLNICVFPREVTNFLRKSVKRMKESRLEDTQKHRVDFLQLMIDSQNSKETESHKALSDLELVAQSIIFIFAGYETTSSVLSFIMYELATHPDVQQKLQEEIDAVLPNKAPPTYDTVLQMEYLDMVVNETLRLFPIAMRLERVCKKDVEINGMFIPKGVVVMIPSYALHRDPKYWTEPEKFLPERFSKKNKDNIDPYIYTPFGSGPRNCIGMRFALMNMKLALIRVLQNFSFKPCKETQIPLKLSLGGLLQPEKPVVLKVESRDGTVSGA

Human S-9, nmol metab./incub. [1]: 1.4 nmol metab./incub.
Mouse S-9, nmol metab./incub. [2]: 1.4 nmol metab./incub.
Human CYP3A4, nmol metab./incub. (CYP3A4): 1.5 nmol metab./incub.
Human FMO1, nmol metab./incub. (Human FMO1): 0.06 nmol metab./incub.
SMILES: Cl.[2H]C(N)(COc1c(C)cccc1C)c1ccccc1 (stereo not shown) [Compound 136]

SMILES: Cc1cc(C)cc(OCC(N)c2ccccc2)c1.Cl (racemic) [Compound 70, (rac)-(+)-2-(3,5-dimethylphenoxy)-1-phenylethanamine hydrochloride]
DNap/NaL ([3]; ratio peak IC50/late IC50): 103
DNap/NaL ([3]; ratio peak/late IC50, Example 2, hydrochloride): 104 and 100.5
IC50 [4]: 18.9 µM
IC50 ([4]; Peak Na+ (INaP) IC50): 20.1 µM
Ratio Mex INaL/Lead INaL ([5]; potency relative to Mexiletine): 94.4
IC50 ([5]; read-out: IC50 for INaL): 0.54 µM
IC50 ([5]; read-out: IC50 for INaP): 171 µM
metabolism in human liver microsomes judged by HPLC [6]: metabolized
half-life at 50 μM ([6]; human, liver microsomes, pH 7.4, liver microsomes + NADPH, species (human), read-out: metabolic stability in liver microsomes T1/2): > 0.0417 days
metabolism in human liver S-9 judged by HPLC [1]: detectably metabolized
half-life at 100 μM [7]: > 30 days
behavioral/toxic effects at 200 mg/kg (Male BALBc mice; mouse, in vivo, ip): slight lethargy
nmols metabolized, CYP2D6 (CYP2D6): 4.6 nmols
nmols/μg CYP, CYP2D6 (CYP2D6): .345 nmols/μg CYP
pmols product/μg CYP/min, CYP2D6 (CYP2D6): 6.92 pmols product/μg CYP/min
solubility (in words) [8]: good solubility
WT-Prolong. Dose ([9]; 'No AP' wraps to 'No AP Prolong.'): No AP
WT-Fold Prolongation ([9]; normal hiPSC cardiomyocytes): None
WT-Cess. Dose ([9]; deuterated vs non-deuterated): 66 µM
WT-EC50 (μM)-Prolong. ([9]; deuterated vs non-deuterated, 'No AP' wraps to 'No AP prolongation'): No AP
Cessation of Beating ([9]; normal hiPSC cardiomyocytes): 66 µM
WT-Prolongation Dose ([9]; normal hiPSC cardiomyocytes): None
LQT-Fold Shortening [10, 14]: 1.279
LQT-Shortening Dose [10, 14]: 7.4 µM
LQT-Cessation Dose ([10]; LQT3 cardiomyocytes): 66 µM
LQT-Fold Shortening ([10]; LQT3 cardiomyocytes): 1.279
LQT-Cess. Dose ([10]; deuterated vs non-deuterated): 66 µM
EC50 ([11]; read-out: LQT-EC50 (μM)-Shortening): < 0.8 µM
IC50 ([11]; read-out: LQT-IC50 (uM)-Shortening): 0.0013 µM
IC50 [12]: 6.2 µM
IC50 ([12]; Example 2): 6 µM and 6.2 µM
DKr/NaL ([12]; ratio hERG IC50/late Na IC50): 34.0
DNaP/Kr ([12]; ratio peak Na IC50/hERG IC50): 3.0
DKr/NaL ([12]; ratio, Example 2): 34.0
DNaP/Kr ([12]; ratio, Example 2): 3.0

SMILES: COCCNC(COc1cc(C)cc(C)c1)c1ccccc1.Cl (stereo not shown) [Compound 69]
DNap/NaL ([3]; ratio peak IC50/late IC50): 45.3
DNap/NaL [3, 15]: 50.5
IC50 ([4]; Peak Na+ (INaP) IC50): 38.3 µM
behavioral/toxic effects at 200 mg/kg (Male BALBc mice; mice, i.p.): slight lethargy
tolerability (Male BALBc mice; mice, i.p.): well-tolerated
solubility (in words) [8]: good solubility
WT-Fold Prolongation ([9]; normal hiPSC cardiomyocytes): None
Cessation of Beating ([9]; human, 5 min): 200 µM
WT-Prolongation Dose ([9]; normal hiPSC cardiomyocytes): None
LQT-IC50 (uM)-Shortening ([10]; APD shortening, LQT3 cardiomyocytes): None
LQT-Fold Shortening ([10]; LQT3 cardiomyocytes): None
LQT-Shortening Dose ([10]; LQT3 cardiomyocytes): None
LQT-Cessation Dose ([10]; human, 5 min): 200 µM
DNaP/Kr [13]: 7.5
IC50 [12]: 5.1 µM
IC50 ([12]; Example 2): 5.1 µM

SMILES: Cc1cccc(C)c1OCC(N)c1ccccc1 (racemic) [Phenyl Mexiletine]
Human S-9, nmol metab./incub. [1]: 1.2 nmol metab./incub.
Mouse S-9, nmol metab./incub. [2]: 2.5 nmol metab./incub.
Human CYP3A4, nmol metab./incub. (CYP3A4): 2.3 nmol metab./incub.
Human FMO1, nmol metab./incub. (Human FMO1): 0.33 nmol metab./incub.

SMILES: COCCNC(COc1ccccc1C(F)(F)F)c1ccccc1.Cl (stereo not shown) [Compound 105]
IC50 [3]: 1.14 µM
DNap/NaL [3, 15]: 38.9
IC50 ([4]; Peak Na+ (INaP) IC50): 44.3 µM
tolerability (Male BALBc mice; mice, i.p.): well-tolerated
solubility (in words) [8]: good solubility
DKr/NaL [13]: 18.3
DNaP/Kr [13]: 2.11
IC50 ([12]; Example 2): 20.9 µM
